In publication PMC9916978, “Enantioselective Human Serum Albumin Binding of Apremilast: Liquid Chromatographic, Fluorescence and Molecular Docking Study” (International Journal of Molecular Sciences, 2023):

How the values were obtained:
Type in all cases: binding
[1] = molecular target: T1, human serum albumin (HSA) (Homo sapiens, UniProt P02768); assay: Retention on Chiral-HSA column (HPLC) with different organic modifiers; details: 25 °C
T1 construct: purchased Chiral Technologies Inc., a subsidiary of Daicel Chemical Industries Ltd
Protocol: In the next step, different organic modifiers in different percentages were tested. Columns with immobilized proteins, such as Chiral-HSA, are very susceptible to the type and percentage of the organic modifier, which can lead to changes in the tridimensional structure of the protein and can alter the secondary interactions between the analyte and the CSP [30, 31]. According to the instructions of the column manufacturer, the maximum usable organic modifier percentage in the mobile phase was 20% [32]. In our study, the effect of 2-propanol (IPA), 1-propanol (PROP), ethanol (EtOH), methanol (MeOH) and acetonitrile (ACN) on the retention factor (k) and selectivity (α) was investigated. The organic modifiers were used in five different percentages in 10 mM phosphate buffer adjusted to pH 7, using a flow rate of 0.7 mL/min, at 25 °C.
LC–UV analysis was carried out on an Agilent 1100 HPLC system consisting of a quaternary pump, an autosampler, a column compartment, and a DAD detector (Agilent Technologies, Waldbronn, Germany). ChemStation software (ver.: B04 03-SP2) was used for data analysis. UV detection was performed at 230 nm. The APR stock solution was prepared at 1 mg mL^−1 in MeOH, and further dilutions were made with water. An injection volume of 5 μL was used.
The retention factor (k) was calculated using the following equation:(5) k=tr−t0/to where tr is the retention time of the analyte, and t0 is the dead time, determined as the first peak appearance in the chromatogram.
(§1) The separation factor (α) was calculated as follows:(6) α=k2/k1 where k1 and k2 are the retention factors of the first- and second-eluting enantiomer, respectively. The k values were used to calculate the albumin-bound percentage (b%) using Equation (7) by zonal elution chromatography:(7) b%=k/1+k·100

[2] = molecular target: T1, human serum albumin (HSA); assay: Albumin-bound percentage by zonal elution chromatography on Chiral-HSA column, extrapolated to zero organic modifier; details: for Bound percentage (b%), Average + SD%: average over five organic modifiers
Description: As it was observed, the decrease of the organic modifier percentage in the mobile phase caused an exponential increase in the retention times of both enantiomers. Therefore, for the calculations, the logarithm of the retention factors was plotted against the organic modifier proportion. With this conversion, a linear relationship was obtained, which could be easily extrapolated to zero for supposedly the best imitation of in vivo conditions. As the intercept of these linear equations, a k value is expressed that can be used to calculate the bound% according to Equation (7).
as §1

[3] = molecular target: T1, human serum albumin (HSA); assay: van 't Hoff thermodynamic analysis on the Chiral-HSA column; details: 10 mM phosphate buffer/IPA 96/4 v/v%, 10–30 °C, transfer from mobile phase to HSA stationary phase
Protocol: The separation temperature is one of the main determinant factors that can affect selectivity, resolution, retention factor and even the elution order of enantiomers during HPLC enantioseparations. To investigate the effects of temperature and to gain a better understanding of the mechanistic aspects of the enantiodiscrimination process on the Chiral-HSA column, thermodynamic analysis was performed in a 10 mM phosphate buffer/IPA 96/4 v/v% mixture.
To understand the energetic interactions between the analytes and the stationary phase, the classical van ’t Hoff approach was applied assuming only enantioselective interaction sites on the stationary phase. However, it should be noted that it is more realistic if both enantioselective and non-enantioselective interactions are considered.
Van ’t Hoff plots were constructed according to Equation (1) by plotting the natural logarithm of the retention factor as a function of the inverse of the absolute temperature in the temperature range of 10–30 °C, with 5 °C increments (a higher temperature was not applied due to possible column damage) (1) lnk=[…]+ΔS^°/R+lnΦ where R stands for the universal gas constant, T is the temperature in Kelvin, and k is the retention factor of the individual enantiomers. ΔH° denotes the standard enthalpy, while ΔS° is the standard entropy change of transfer of the solute from the mobile phase to the stationary phase, and Φ is the phase ratio of the HSA column. If ΔH° is constant in the selected temperature range, a linear relationship is obtained between lnk and 1/T, with a slope of −ΔH°/R and an intercept of ΔS°/R + lnΦ. Since the value of the phase ratio is seldom known, ΔS°* values (ΔS°* = ΔS° + RlnΦ) are often used to compensate for the uncertainty in Φ [38, 39].
Similarly, the differences in the change of standard enthalpy Δ(ΔH°) and standard entropy Δ(ΔS°) for the two enantiomers moving from the mobile phase to the stationary phase were also calculated according to the modified van ’t Hoff equation:(2) lnα=−∆(∆H^°)/RT+∆(∆S^°)/R
The isoenantioselective temperatures (Tiso) were also calculated as the ratio between Δ(ΔH°) and Δ(ΔS°), according to Equation (3). Tiso represents the temperature at which the enthalpy contribution is compensated by the entropic term, which means that […] (Δ(ΔG°)) equals zero. The thermodynamic parameter Δ(ΔG°) provides information on the strength of binding between selector and selectant, with more negative values indicating a more efficient binding. Consequently, a value of Δ(ΔG°) = 0 means that there is no difference between the binding strength of the enantiomers; therefore, at Tiso, the two enantiomers co-elute, and no separation is achieved. (3) Tiso=∆(∆H^°)/∆(∆S^°) (4) ∆(∆G^°)=∆(∆H^°)−T∗∆(∆S^°)

[4] = 1-PROP 2% in 10 mM phosphate buffer pH 7, 0.7 mL/min
[5] = 1-PROP 4% in 10 mM phosphate buffer pH 7, 0.7 mL/min
[6] = 1-PROP 6% in 10 mM phosphate buffer pH 7, 0.7 mL/min
[7] = 1-PROP 8% in 10 mM phosphate buffer pH 7, 0.7 mL/min
[8] = 1-PROP 10% in 10 mM phosphate buffer pH 7, 0.7 mL/min
[9] = ACN 2% in 10 mM phosphate buffer pH 7, 0.7 mL/min
[10] = ACN 4% in 10 mM phosphate buffer pH 7, 0.7 mL/min
[11] = ACN 6% in 10 mM phosphate buffer pH 7, 0.7 mL/min
[12] = ACN 8% in 10 mM phosphate buffer pH 7, 0.7 mL/min
[13] = ACN 10% in 10 mM phosphate buffer pH 7, 0.7 mL/min
[14] = EtOH 2% in 10 mM phosphate buffer pH 7, 0.7 mL/min
[15] = EtOH 4% in 10 mM phosphate buffer pH 7, 0.7 mL/min
[16] = EtOH 6% in 10 mM phosphate buffer pH 7, 0.7 mL/min
[17] = EtOH 8% in 10 mM phosphate buffer pH 7, 0.7 mL/min
[18] = EtOH 10% in 10 mM phosphate buffer pH 7, 0.7 mL/min
[19] = IPA 2% in 10 mM phosphate buffer pH 7, 0.7 mL/min
[20] = IPA 4% in 10 mM phosphate buffer pH 7, 0.7 mL/min
[21] = IPA 6% in 10 mM phosphate buffer pH 7, 0.7 mL/min
[22] = IPA 8% in 10 mM phosphate buffer pH 7, 0.7 mL/min
[23] = IPA 10% in 10 mM phosphate buffer pH 7, 0.7 mL/min
[24] = MeOH 2% in 10 mM phosphate buffer pH 7, 0.7 mL/min
[25] = MeOH 4% in 10 mM phosphate buffer pH 7, 0.7 mL/min
[26] = MeOH 6% in 10 mM phosphate buffer pH 7, 0.7 mL/min
[27] = MeOH 8% in 10 mM phosphate buffer pH 7, 0.7 mL/min
[28] = MeOH 10% in 10 mM phosphate buffer pH 7, 0.7 mL/min
[29] = extrapolation to zero percentage of 1-propanol
[30] = extrapolation to zero percentage of ACN
[31] = extrapolation to zero percentage of EtOH
[32] = extrapolation to zero percentage of IPA
[33] = extrapolation to zero percentage of MeOH

T1 sequence (P02768 25-609): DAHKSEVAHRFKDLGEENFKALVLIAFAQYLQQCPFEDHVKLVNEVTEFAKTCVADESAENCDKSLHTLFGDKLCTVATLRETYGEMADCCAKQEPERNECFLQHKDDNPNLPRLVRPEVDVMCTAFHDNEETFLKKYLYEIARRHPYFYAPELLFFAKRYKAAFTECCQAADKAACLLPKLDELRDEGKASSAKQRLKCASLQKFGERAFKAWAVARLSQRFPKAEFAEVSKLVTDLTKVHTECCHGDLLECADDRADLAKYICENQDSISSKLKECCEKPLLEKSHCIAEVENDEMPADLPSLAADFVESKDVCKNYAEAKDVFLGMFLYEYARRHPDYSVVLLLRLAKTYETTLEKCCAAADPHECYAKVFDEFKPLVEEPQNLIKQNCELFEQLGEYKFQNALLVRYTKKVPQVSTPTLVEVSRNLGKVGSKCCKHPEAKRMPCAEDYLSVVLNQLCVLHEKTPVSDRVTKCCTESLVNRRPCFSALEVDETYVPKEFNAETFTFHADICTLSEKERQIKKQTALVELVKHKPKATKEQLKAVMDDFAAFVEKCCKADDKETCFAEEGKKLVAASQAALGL

| Compound | retention factor k [1, 4] | retention factor k [1, 5] | retention factor k [1, 6] | retention factor k [1, 7] | retention factor k [1, 8] | retention factor k [1, 9] | retention factor k [1, 10] | retention factor k [1, 11] | retention factor k [1, 12] | retention factor k [1, 13] | retention factor k [1, 14] | retention factor k [1, 15] | retention factor k [1, 16] | retention factor k [1, 17] | retention factor k [1, 18] | retention factor k [1, 19] | retention factor k [1, 20] | retention factor k [1, 21] | retention factor k [1, 22] | retention factor k [1, 23] | other results |
| --- | --- | --- | --- | --- | --- | --- | --- | --- | --- | --- | --- | --- | --- | --- | --- | --- | --- | --- | --- | --- | --- |
| CCOc1cc([C@H](CS(C)(=O)=O)N2C(=O)c3cccc(NC(C)=O)c3C2=O)ccc1OC [R-APR] | 8.99 | 5.96 | 4.19 | 1.99 | 1.32 | 7.56 | 3.98 | 2.80 | 2.03 | 1.42 | 8.72 | 4.93 | 3.33 | 2.83 | 2.66 | 8.04 | 5.00 | 3.01 | 2.26 | 1.45 | retention factor k [1, 24]: 13.05; retention factor k [1, 25]: 9.32; retention factor k [1, 26]: 6.05; retention factor k [1, 27]: 4.48; retention factor k [1, 28]: 3.72; Bound percentage (b%), Average + SD% [2]: 92.7 ± 1.5%; Bound percentage (b%) [2, 29]: 94.0%; Bound percentage (b%) [2, 30]: 91.3%; Bound percentage (b%) [2, 31]: 91.4%; Bound percentage (b%) [2, 32]: 92.1%; Bound percentage (b%) [2, 33]: 94.5%; Δ(Δ)G° [3]: -0.906 kcal/mol; Δ(Δ)H° [3]: -6.338 kcal/mol; Δ(Δ)S° [3]: −76.29 J/molK |
| CCOc1cc([C@@H](CS(C)(=O)=O)N2C(=O)c3cccc(NC(C)=O)c3C2=O)ccc1OC [S-APR, apremilast] | 13.98 | 8.04 | 5.20 | 2.25 | 1.32 | 10.05 | 4.90 | 3.09 | 2.03 | 1.42 | 13.84 | 6.52 | 4.12 | 3.20 | 2.94 | 13.48 | 7.62 | 3.76 | 2.56 | 1.45 | retention factor k [1, 24]: 19.00; retention factor k [1, 25]: 15.27; retention factor k [1, 26]: 8.07; retention factor k [1, 27]: 5.32; retention factor k [1, 28]: 3.98; Bound percentage (b%), Average + SD% [2]: 95.5 ± 1.3%; Bound percentage (b%) [2, 29]: 96.4%; Bound percentage (b%) [2, 30]: 93.7%; Bound percentage (b%) [2, 31]: 94.8%; Bound percentage (b%) [2, 32]: 95.7%; Bound percentage (b%) [2, 33]: 96.8%; Δ(Δ)G° [3]: -1.06 kcal/mol; Δ(Δ)H° [3]: -7.237 kcal/mol; Δ(Δ)S° [3]: −86.78 J/molK |
